For 29 compounds, IC50 results are on record in patent US20240208972A1, “LRRK2 INHIBITORS AND USES THEREOF” (NEURON23, INC., priority 2022, published 2024).

Where only a bound is given, the exact number is not on record here.

The term IC50 denotes the midpoint of a concentration-inhibition curve. A lower IC50 goes with higher potency.

T1 sequence (Q5S007 1879-2138 limits assumed): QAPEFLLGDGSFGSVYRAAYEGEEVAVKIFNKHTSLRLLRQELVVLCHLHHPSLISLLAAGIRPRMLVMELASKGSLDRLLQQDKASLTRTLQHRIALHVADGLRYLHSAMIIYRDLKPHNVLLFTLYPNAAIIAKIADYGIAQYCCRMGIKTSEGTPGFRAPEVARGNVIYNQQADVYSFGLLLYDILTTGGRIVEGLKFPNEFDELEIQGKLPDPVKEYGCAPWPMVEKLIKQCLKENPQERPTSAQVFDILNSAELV

This assay addresses T1, wt human LRRK2, catalytic site (Homo sapiens, UniProt Q5S007).
T1 construct: wt human LRRK2, catalytic site, catalytic site (ThermoFisher/USA); purchased ThermoFisher
Kind of assay: TR-FRET LanthaScreen Tb Kinase Activity Assay, LRRK2 kinase inhibition. In kind it is biochemical. Particulars: 2 nM wt human LRRK2, 400 nM peptide, 38 μM ATP. A digest of the protocol: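 TR-FRET LanthaScreen format: 2 nM wt human LRRK2 catalytic domain with 400 nM fluorescein-ERM (LRRKtide) and 38 μM ATP in Kinase Buffer A, after 15 min compound preincubation. Reaction 120 min at RT, then EDTA plus Tb-anti-pLRRKtide antibody for 60 min; emission ratios analysed per kit protocol.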
On the technique in general: Time-resolved FRET reads energy transfer from a long-lived donor to a nearby acceptor.
Compound `Cc1n[nH]c2c1N=C(c1c(F)cccc1F)Nc1cc(F)c(N3CCOCC3)cc1-2` [Example 28, 4-[5-(2,6-difluorophenyl)-8-fluoro-3-methyl-1,6-dihydropyrazolo[4,3-d][1,3]benzodiazepine-9-yl]morpholine] showed an IC50 of 2 to 100 nM.

`Cc1n[nH]c2c1N=C(c1c(F)cccc1F)Nc1c-2cc(N2CC3(CCOCC3)C2)nc1C` [Example 47, 2-[8-(2,6-difluorophenyl)-5,11-dimethyl-3,4,7,9,12-pentazatricyclo[8.4.0.02,6]tetradeca-1(10),2(6),4,7,11,13-hexaen-13-yl]-7-oxa-2-azaspiro[3.5]nonane]: the IC50 is under 2 nM. Then `[2H]C([2H])([2H])c1n[nH]c2c1N=C(c1c(F)cccc1F)Nc1ccc(N3CCO[C@@H](C)C3)cc1-2` [Example 34, (2S)-4-[5-(2,6-difluorophenyl)-3-(trideuteriomethyl)-1,6-dihydropyrazolo[4,3-d][1,3]benzodiazepin-9-yl]-2-methyl-morpholine], with under 2 nM; and `Cc1n[nH]c2c1N=C(c1c(F)cccc1F)Nc1ccc(N3CCO[C@@H](C)C3)cc1-2` [Example 26, (S)-4-(5-(2,6-difluorophenyl)-3-methyl-1,6-dihydrobenzo[d]pyrazolo[3,4-f][1,3]diazepin-9-yl)-2-methylmorpholine], with 2 to 100 nM; and `Cc1n[nH]c2c1N=C(c1c(F)cccc1F)Nc1c-2cc(N2CCN(CC(F)F)CC2)nc1C` [Example 19, 13-[4-(2,2-difluoroethyl)piperazin-1-yl]-8-(2,6-difluorophenyl)-5,11-dimethyl-3,4,7,9,12-pentazatricyclo[8.4.0.02,6]tetradeca-1(10),2(6),4,7,11,13-hexaene], with under 2 nM. The figure for `Cc1n[nH]c2c1N=C(c1c(F)cccc1F)Nc1ccc(N3CCN(CCF)CC3)cc1-2` [Example 25, 5-(2,6-difluorophenyl)-9-[4-(2-fluoroethyl)piperazin-1-yl]-3-methyl-1,6-dihydropyrazolo[4,3-d][1,3]benzodiazepine] is under 2 nM; for `Cc1n[nH]c2c1N=C(c1c(F)cccc1F)Nc1c-2cc(N2CCN(CC(C)(C)F)CC2)nc1C` [Example 5, 5-(2,6-difluorophenyl)-9-(4-(2-fluoro-2-methylpropyl)piperazin-1-yl)-3,7-dimethyl-1,6-dihydropyrazolo[4,3-d]pyrido[4,3-f][1,3]diazepine] it is under 2 nM; for `[2H]C([2H])([2H])c1n[nH]c2c1N=C(c1c(F)cccc1F)Nc1cnc(N3CCOCC3)cc1-2` [Example 32, 4-[8-(2,6-difluorophenyl)-5-(trideuteriomethyl)-3,4,7,9,12-pentazatricyclo[8.4.0.02,6]tetradeca-1(10),2(6),4,7,11,13-hexaen-13-yl]morpholine] it is under 2 nM. In turn, `Cc1n[nH]c2c1N=C(c1c(F)cccc1F)Nc1c-2cc(N2CCO[C@@H](C)C2)nc1C` [Example 40, (S)-4-(5-(2,6-difluorophenyl)-3,7-dimethyl-1,6-dihydropyrazolo[4,3-d]pyrido[4,3-f][1,3]diazepin-9-yl)-2-methylmorpholine] yielded a half-inhibitory concentration (IC50) of under 2 nM. The figure for `Cn1nccc1-c1cc2c(cn1)NC(c1c(F)cccc1F)=Nc1c(Cl)n[nH]c1-2` [Example 59, 3-chloro-5-(2,6-difluorophenyl)-9-(1-methyl-1H-pyrazol-5-yl)-1,6-dihydropyrazolo[4,3-d]pyrido[4,3-f][1,3]diazepine] is under 2 nM; for `Cc1n[nH]c2c1N=C(c1c(F)cccc1F)Nc1c-2cc(N2CCN(CC(F)(F)F)CC2)nc1C` [Example 23, 5-(2,6-difluorophenyl)-3,7-dimethyl-9-(4-(2,2,2-trifluoroethyl)piperazin-1-yl)-1,6-dihydropyrazolo[4,3-d]pyrido[4,3-f][1,3]diazepine] it is under 2 nM; for `Cc1n[nH]c2c1N=C(c1c(F)cccc1F)Nc1cnc(-c3cnn(C(F)F)c3)cc1-2` [Example 1, 9-(1-(difluoromethyl)-1H-pyrazol-4-yl)-5-(2,6-difluorophenyl)-3-methyl-1,6-dihydropyrazolo[4,3-d]pyrido[4,3-f][1,3]diazepine] it is under 2 nM. Then `Cc1n[nH]c2c1N=C(c1c(F)cccc1F)Nc1ccc(N3CCO[C@H](C)C3)cc1-2` [Example 7, (R)-4-(5-(2,6-difluorophenyl)-3-methyl-1,6-dihydrobenzo[d]pyrazolo[3,4-f][1,3]diazepin-9-yl)-2-methylmorpholine], with under 2 nM; and `Cc1n[nH]c2c1N=C(c1c(F)cccc1F)Nc1c-2cc(N2CCN(CCF)C[C@H]2C)nc1C` (single isomer, unassigned) [Example 18], with under 2 nM; and `[2H]C1([2H])OC([2H])([2H])C([2H])([2H])N(c2ccc3c(c2)-c2[nH]nc(C)c2N=C(c2c(F)cccc2F)N3)C1([2H])[2H]` [Example 22, 2,2,3,3,5,5,6,6-octadeuterio-4-[5-(2,6-difluorophenyl)-3-methyl-1,6-dihydropyrazolo[4,3-d][1,3]benzodiazepin-9-yl]morpholine], with under 2 nM. Then `Cc1n[nH]c2c1N=C(c1c(F)cccc1F)N1CCc3nc(N4CCOCC4)cc-2c31` [Example 42, 4-[8-(2,6-difluorophenyl)-5-methyl-3,4,7,9,13-pentazatetracyclo[7.6.1.02,6.012,16]hexadeca-1(16),2(6),4,7,12,14-hexaen-14-yl]morpholine], with under 2 nM; and `Cc1n[nH]c2c1N=C(c1c(F)cccc1F)Nc1c-2cc(N2CCN(CCF)CC2)nc1C` [Example 9, 8-(2,6-difluorophenyl)-13-[4-(2-fluoroethyl)piperazin-1-yl]-5,11-dimethyl-3,4,7,9,12-pentazatricyclo[8.4.0.02,6]tetradeca-1(10),2(6),4,7,11,13-hexaene], with under 2 nM; and `CCc1n[nH]c2c1N=C(c1c(F)cccc1F)Nc1cnc(N3CCOCC3)cc1-2` [Example 31, 4-[8-(2,6-difluorophenyl)-5-ethyl-3,4,7,9,12-pentazatricyclo[8.4.0.02,6]tetradeca-1(10),2(6),4,7,11,13-hexaen-13-yl]morpholine], with 2 to 100 nM.

For `Cc1n[nH]c2c1N=C(c1c(F)cccc1F)Nc1c-2cc(N2CCOCC2)nc1C` [Example 8, 4-[8-(2,6-difluorophenyl)-5,11-dimethyl-3,4,7,9,12-pentazatricyclo[8.4.0.02,6]tetradeca-1(10),2(6),4,7,11,13-hexaen-13-yl]morpholine], the IC50 is under 2 nM. The figure for `Cc1n[nH]c2c1N=C(c1c(F)cccc1F)Nc1cnc(C#CC3(C)CCOCC3)cc1-2` [Example 17, 8-(2,6-difluorophenyl)-5-methyl-13-[2-(4-methyltetrahydropyran-4-yl)ethynyl]-3,4,7,9,12-pentazatricyclo[8.4.0.02,6]tetradeca-1(10),2(6),4,7,11,13-hexaene] is under 2 nM; for `Cc1n[nH]c2c1N=C(c1c(F)cccc1F)Nc1c(F)cc(N3CCOCC3)cc1-2` [Example 30, 4-(5-(2,6-difluorophenyl)-7-fluoro-3-methyl-1,6-dihydrobenzo[d]pyrazolo[3,4-f][1,3]diazepin-9-yl)morpholine] it is under 2 nM; for `Cc1n[nH]c2c1N=C(c1c(F)cccc1F)Nc1cnc(N3CCO[C@@H](C(F)(F)F)C3)cc1-2` [Example 55, (2R)-4-[8-(2,6-difluorophenyl)-5-methyl-3,4,7,9,12-pentazatricyclo[8.4.0.02,6]tetradeca-1(10),2(6),4,7,11,13-hexaen-13-yl]-2-(trifluoromethyl)morpholine] it is under 2 nM.

Regarding `Fc1cccc(F)c1C1=Nc2c(C(F)F)n[nH]c2-c2cc(N3CCOCC3)ncc2N1` [Example 10, 4-[5-(difluoromethyl)-8-(2,6-difluorophenyl)-3,4,7,9,12-pentazatricyclo[8.4.0.02,6]tetradeca-1(10),2(6),4,7,11,13-hexaen-13-yl]morpholine], the IC50 was under 2 nM. The figure for `Cc1n[nH]c2c1N=C(c1c(F)cccc1F)Nc1ccc(N3CCOCC3)cc1-2` [Example 29, 4-(5-(2,6-difluorophenyl)-3-methyl-1,6-dihydrobenzo[d]pyrazolo[3,4-f][1,3]diazepin-9-yl)morpholine] is under 2 nM. Turning to `Cc1n[nH]c2c1N=C(c1c(F)cccc1F)Nc1ccc(-c3cnn(C(F)F)c3)cc1-2` [Example 13, 9-[1-(difluoromethyl)pyrazol-4-yl]-5-(2,6-difluorophenyl)-3-methyl-1,6-dihydropyrazolo[4,3-d][1,3]benzodiazepine], the IC50 was under 2 nM. Then `Cc1n[nH]c2c1N=C(c1c(F)cccc1F)Nc1cnc(-c3ccn(C(F)F)n3)cc1-2` [Example 12, 13-[1-(difluoromethyl)pyrazol-3-yl]-8-(2,6-difluorophenyl)-5-methyl-3,4,7,9,12-pentazatricyclo[8.4.0.02,6]tetradeca-1(10),2(6),4,7,11,13-hexaene], with under 2 nM. Then `Cc1n[nH]c2c1N=C(c1c(F)cccc1F)Nc1c-2cc(N2CCN(CC(C)F)CC2)nc1C` (racemic) [Example 20, 8-(2,6-difluorophenyl)-13-[4-(2-fluoropropyl)piperazin-1-yl]-5,11-dimethyl-3,4,7,9,12-pentazatricyclo[8.4.0.02,6]tetradeca-1(10),2(6),4,7,11,13-hexaene], with under 2 nM; and `[2H]C([2H])([2H])c1n[nH]c2c1N=C(c1c(F)cccc1F)Nc1ccc(N3CCOCC3)cc1-2` [Example 33, 4-[5-(2,6-difluorophenyl)-3-(trideuteriomethyl)-1,6-dihydropyrazolo[4,3-d][1,3]benzodiazepin-9-yl]morpholine], with under 2 nM. Then `Cc1n[nH]c2c1N=C(c1c(F)cc(F)cc1F)Nc1ccc(N3CCOCC3)cc1-2` [Example 27, 4-[3-methyl-5-(2,4,6-trifluorophenyl)-1,6-dihydropyrazolo[4,3-d][1,3]benzodiazepin-9-yl]morpholine], with 2 to 100 nM.
